The values below come from ChEMBL document CHEMBL1201862, “PubChem BioAssay data set” (2004).

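Interpolation was linear, between the two tested concentrations surrounding the appropriate level; five concentrations were tested over 48 hours in 96-well plates. GI50: concentration for 50% inhibition of growth.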 Activity calls are given as the source filed them. Cut-off read from the data, not from the text of the source: active = GI50 up to about 1.1 µM and inactive = higher. Where only a bound is given, the exact number is not on record here.

Among the test systems are DMS-114; DMS-273; HOP-62; HT-29; M19-MEL; MOLT-4; NCI-H226; NCI-H23; SNB-75; UACC-257; UO-31; XF498; 786-0; HCC 2998; LXFL 529; UACC-62.
Holding throughout (test): NCI tumour cell line growth inhibition, 48 h

Take `N/C(=N\O)N/N=C/c1ccc2c(c1)OCCO2`: the GI50 in the test with DMS-114 was > 28.2 µM (inactive); in the test with DMS-273 it was 16.6 µM (inactive); with HOP-62, 19.8 µM (inactive); with HT-29, 8.53 µM (inactive); in the test on M19-MEL, > 33 µM (inactive); in the test with MOLT-4 it was 19.1 µM (inactive). Further, the GI50 in the test with NCI-H226 was 4.08 µM (inactive); in the test on NCI-H23, 25.6 µM (inactive); in the test with SNB-75, 29.9 µM (inactive); with UACC-257, 18.6 µM (inactive); in the test with UO-31, 8.65 µM (inactive); in the test on XF498, 8.79 µM (inactive).
`O=C1Cc2ccccc2N1c1c(Cl)cccc1Cl`: the GI50 in the test with 786-0 was 92.5 µM (inactive); in the test with DMS-114, 29.1 µM (inactive); in the test on HCC 2998, 76.7 µM (inactive); with HOP-62, > 100 µM (inactive); with HT-29, 34.3 µM (inactive); in the test on LXFL 529, 87.7 µM (inactive). Besides, the GI50 in the test with M19-MEL was 40.6 µM (inactive); in the test with MOLT-4, 22.6 µM (inactive); in the test on NCI-H226 it was 37.9 µM (inactive); with NCI-H23 it was 52 µM (inactive); in the test with SNB-75, 27.7 µM (inactive); with UACC-257 it was 39.6 µM (inactive). The figures for the GI50 with UACC-62, in the test with UO-31 and in the test on XF498 were 40.2 µM (inactive), 24.3 µM (inactive) and 21.6 µM (inactive), respectively.
On to `CC(C)(C)c1cc(Cc2ccc(S(C)(=O)=O)cc2)c(O)c(C(C)(C)C)c1`, for which the GI50 in the test on 786-0 is 16.1 µM (inactive); with DMS-114, 13.5 µM (inactive); in the test on DMS-273 it was 14.3 µM (inactive); in the test on HCC 2998, 16.2 µM (inactive); in the test with HOP-62, 16.2 µM (inactive); in the test on HT-29, 14.7 µM (inactive). The GI50 with LXFL 529 was 15.5 µM (inactive); in the test on M19-MEL it was 17.1 µM (inactive); in the test with MOLT-4, 12.3 µM (inactive); in the test with NCI-H23 it was 16.8 µM (inactive); in the test with SNB-75 it was 14.8 µM (inactive); in the test on UACC-257, 17 µM (inactive). The GI50 with UACC-62 is 13.1 µM (inactive); in the test with UO-31, 16.1 µM (inactive); in the test on XF498 it was 15.2 µM (inactive).
For the compound `CC(=O)Nc1ccc(C(=O)N2N=C(C)/C(=C/c3cccc(O)c3)C2=O)cc1`, the GI50 in the test on 786-0, with DMS-114, with DMS-273, in the test on HCC 2998, in the test on HOP-62 and in the test with HT-29 was > 100 µM (inactive) throughout. Also, the GI50 in the test with M19-MEL, with MOLT-4, in the test on NCI-H226, in the test with NCI-H23, in the test with SNB-75 and in the test on UACC-257 was > 100 µM (inactive) in each case. Moreover, the GI50 in the test on UO-31 and with XF498 was > 100 µM (inactive) throughout.
Regarding `CCOC(=O)C(C(=O)OCC)c1ccc([N+](=O)[O-])o1`, the GI50 was 6.64 µM (inactive) in the test with 786-0; 18 µM (inactive) in the test with DMS-273; 17.3 µM (inactive) in the test on HCC 2998; > 50 µM (inactive) in the test with HOP-62; 14 µM (inactive) in the test on HT-29; 3.6 µM (inactive) in the test with LXFL 529. Moreover, the GI50 was 17.5 µM (inactive) in the test with M19-MEL; 3.08 µM (inactive) in the test on MOLT-4; 21.9 µM (inactive) in the test with NCI-H226; 17.6 µM (inactive) with NCI-H23; 20 µM (inactive) with SNB-75; 14.7 µM (inactive) in the test with UACC-257. For the same compound, the GI50 in the test with UACC-62 is 17.9 µM (inactive); with UO-31, 15.6 µM (inactive); with XF498, 17.1 µM (inactive).
Take `CO/C(=N\N=C\c1ccc(Cl)cc1)c1ccncc1`: the GI50 with DMS-114, with DMS-273, in the test with HCC 2998, in the test with HOP-62, in the test on HT-29 and in the test with LXFL 529 was > 100 µM (inactive) throughout. Moreover, the GI50 with MOLT-4 is > 100 µM (inactive); in the test on NCI-H226, 59.7 µM (inactive); in the test with NCI-H23, > 100 µM (inactive); with SNB-75, 63 µM (inactive); with UACC-257, > 100 µM (inactive); in the test on UACC-62, > 100 µM (inactive). Besides, the GI50 in the test with UO-31 and in the test with XF498 was > 100 µM (inactive) in each case.
Turning to `CCOC(=O)c1cc(Cl)ccc1OC(N)=O`, the GI50 with DMS-114, with DMS-273, in the test on HCC 2998, in the test with HOP-62, with HT-29 and with M19-MEL was > 100 µM (inactive) throughout. Besides, the GI50 with MOLT-4, in the test on NCI-H226, with NCI-H23, in the test with SNB-75, with UACC-257 and with UACC-62 was > 100 µM (inactive) each time. The GI50 in the test with UO-31 and with XF498 was > 100 µM (inactive) in each case.
As to `CC/C=C\C/C=C\C/C=C\CCCCCCCC(=O)OCC`, the GI50 with 786-0, with DMS-114, in the test on HCC 2998, in the test on HOP-62, in the test on HT-29 and in the test on LXFL 529 was > 100 µM (inactive) throughout. Besides, the GI50 was > 100 µM (inactive) with M19-MEL; 87.1 µM (inactive) with MOLT-4; > 100 µM (inactive) in the test on NCI-H226; > 100 µM (inactive) in the test on NCI-H23; > 100 µM (inactive) in the test on SNB-75; > 100 µM (inactive) with UACC-257. The GI50 in the test with UACC-62 was > 100 µM (inactive); in the test on UO-31, > 100 µM (inactive); in the test on XF498 it was 30.9 µM (inactive).
With `CC1CCN(c2cc(-c3cc4ccccc4o3)oc(=O)c2C#N)CC1`, the GI50 in the test on DMS-114, in the test with DMS-273, in the test with HCC 2998, in the test on HT-29, in the test with LXFL 529 and in the test with MOLT-4 was > 100 µM (inactive) in each case. Further, the GI50 in the test with NCI-H226, in the test with NCI-H23, in the test with SNB-75, in the test with UACC-257, in the test on UO-31 and in the test on XF498 was > 100 µM (inactive) each time.
As to `CCOc1cccc2[s+]snc12`, the GI50 is > 100 µM (inactive) in the test with 786-0; > 100 µM (inactive) in the test with DMS-273; > 100 µM (inactive) with HCC 2998; > 100 µM (inactive) in the test on HOP-62; > 100 µM (inactive) with HT-29; 77.4 µM (inactive) in the test on LXFL 529. Moreover, the GI50 is 56 µM (inactive) with M19-MEL; 78.2 µM (inactive) in the test on MOLT-4; > 100 µM (inactive) in the test with NCI-H226; > 10 µM (inactive) with NCI-H23; 25.6 µM (inactive) in the test on SNB-75; > 100 µM (inactive) in the test on UACC-257. The GI50 in the test with UACC-62 was 40.3 µM (inactive); in the test with UO-31, 37.3 µM (inactive); with XF498, 25.2 µM (inactive).
In the case of `N/C(=N/O)N/N=C\c1cc(Cl)cc(Cl)c1O`, the GI50 is 0.347 µM (active) in the test on DMS-273; 2.31 µM (inactive) with HCC 2998; 0.615 µM (active) in the test on HOP-62; 5.2 µM (inactive) in the test on HT-29; 4.19 µM (inactive) with M19-MEL; 0.55 µM (active) with MOLT-4. Moreover, the GI50 in the test with NCI-H226 was 2.01 µM (inactive); in the test on NCI-H23, 1.54 µM (inactive); with SNB-75, 1.03 µM (active); in the test with UACC-257, 4.34 µM (inactive); in the test with UACC-62, 0.42 µM (active); with UO-31, 4.25 µM (inactive). Besides, the GI50 with XF498 is 0.708 µM (active).
For the compound `CCC1N2CCCCC2[C@@H]2c3[nH]c4ccccc4c3CCN12` (stereo partly drawn), the GI50 with 786-0, in the test on DMS-114, in the test on DMS-273, in the test on HCC 2998, with HOP-62 and in the test with HT-29 was > 100 µM (inactive) each time. Also, the GI50 is > 100 µM (inactive) in the test with LXFL 529; > 100 µM (inactive) in the test with M19-MEL; > 100 µM (inactive) in the test with MOLT-4; > 100 µM (inactive) in the test on NCI-H23; 77.8 µM (inactive) in the test on SNB-75; > 100 µM (inactive) in the test on UACC-257. Besides, the GI50 in the test on UACC-62, in the test on UO-31 and in the test on XF498 was > 100 µM (inactive) in each case.
For the compound `O=[N+]([O-])c1cc(C(F)(F)F)cc2c1SC1=Nc3ccccc3CN12`, the GI50 in the test on DMS-114, in the test with DMS-273, in the test with HCC 2998, in the test with HOP-62, with HT-29 and with M19-MEL was > 100 µM (inactive) throughout. Besides, the GI50 in the test with MOLT-4, in the test on NCI-H226, in the test with NCI-H23, in the test on SNB-75, in the test with UACC-257 and in the test with UACC-62 was > 100 µM (inactive) each time. The GI50 in the test on UO-31 and in the test with XF498 was > 100 µM (inactive) each time.
For `O/N=C/c1ncccc1C1OCCO1`, the GI50 in the test on 786-0, with DMS-114, in the test with DMS-273, in the test on HOP-62, in the test with HT-29 and in the test with LXFL 529 was > 100 µM (inactive) throughout. The GI50 with M19-MEL, with MOLT-4, with NCI-H226, in the test with NCI-H23, in the test on SNB-75 and in the test with UACC-257 was > 100 µM (inactive) in each case. For the same compound, the GI50 in the test with UACC-62, in the test on UO-31 and in the test with XF498 was > 100 µM (inactive) each time.
